The source made the active and inactive calls. The calls are words filed in the database; no cut-off is given here.

Broadly, the CC50 is the concentration that lowers cell viability or growth by half.

Series [1] in a line: Cytotoxicity against MDCK cells. Format: toxicity, cell-based, Canis lupus familiaris. The settings on record: dog.
The test system of series [2] is Influenza A virus. Description: Antiviral activity against influenza A virus H1N1 A/Puerto Rico/8/1934 infected in Kunming mouse assessed as survival rate at 5 to 15 mg/kg, po administered with compound twice daily for 7 days followed by viral infection on day 2 and measured for 14 days relative to control. The format is functional. The settings on record: dose 5-15 mg/kg, time 14 day.

For series [3], the system named is Influenza A virus. As to the kind of experiment: Antiviral activity against influenza A virus H1N1 A/Puerto Rico/8/1934 infected in Kunming mouse assessed as survival rate at 1.67 mg/kg, po administered with compound twice daily for 7 days followed by viral infection on day 2 and measured for 14 days relative to control. The settings on record: H1N1 A/Puerto Rico/8/1934, 336 h, time 14 day. Format: functional.

Series [4] is described as follows: Gastrointestinal toxicity in Kunming mouse infected with influenza A virus H1N1 A/Puerto Rico/8/1934 assessed as soft stool at 1.67 to 15 mg/kg, po administered with compound twice daily for 7 days followed by viral infection on day 2 and measured for 14 days. Format: organism-based. The settings on record: in vivo, 336 h, dose 1.67-15 mg/kg, time 14 day.
Series [5] can be described thus: Toxicity in Kunming mouse infected with influenza A virus H1N1 A/Puerto Rico/8/1934 assessed as reduction in body weight at 1.67 to 15 mg/kg, po administered with compound twice daily for 7 days followed by viral infection on day 2 and measured for 14 days relative to oseltamivir. The settings on record: in vivo, 336 h, dose 1.67-15 mg/kg, time 14 day. The format is organism-based.

Series [6] relates to Influenza A virus. Description: Antiviral activity against Influenza A virus H3N2 subtype. The format is functional, organism-based.
The test system of series [7] is Infectious bronchitis virus. Description: Antiviral activity against Infectious bronchitis virus. Format: functional, organism-based.
Series [8] in a line: Toxicity in Kunming mouse infected with influenza A virus H1N1 A/Puerto Rico/8/1934 assessed as reduction in body weight at 5 to 15 mg/kg, po administered with compound twice daily for 7 days followed by viral infection on day 2 and measured for 14 days relative to oseltamivir. The settings on record: in vivo, 336 h, dose 5-15 mg/kg, time 14 day. Format: organism-based.

In the case of `CC(=O)Nc1ccc2oc(-c3ccnc(C(=O)N4CCN([C@H](c5ccc(F)cc5)c5nnn(C)n5)CC4)c3)nc2c1`, in series [1], the CC50 was above 100 µM. In the series on Influenza A virus [2], the Survival is on record as 100%. Besides, the survival at 1.67 mg/kg in the series on Influenza A virus [3] is 70%. Further, the Activity entry in series [4] is reported as “Toxic”; in series [5], “Non-Toxic”.
On to `CC(=O)Nc1ccc2oc(-c3ccnc(C(=O)N4CCN([C@H](c5ccccc5)c5nnn(C)n5)CC4)c3)nc2c1`, for which the Survival in the series on Influenza A virus [2] amounted to 100%. For the same compound, the survival at 1.67 mg/kg with Influenza A virus [3] came to 80%. The outcome (with Influenza A virus [6]; in series [7]) was inactive. Further, the Activity result in series [8] was “Non-Toxic”.

(Values after ChEMBL document CHEMBL5385857, “Optimization and SAR research at the benzoxazole and tetrazole rings of JNJ4796 as new anti-influenza A virus agents, part 2” (Eur J Med Chem, 2023).)
